Results taken from ChEMBL document CHEMBL4725332, “The design of a novel near-infrared fluorescent HDAC inhibitor and image of tumor cells” (Bioorg Med Chem, 2020).
Activity calls are given as the source filed them. The calls are words filed in the database; no cut-off is given here.

How the values were obtained:
[1] = Drug uptake in human MDA-MB-231 cells assessed as increased fluorescence intensity at 5 uM for 1 to 24 hrs by fluorescence imaging analysis; assay type: ADME, cell-based; settings: mda-mb-231, 25 µM, time 1-24 hrs
Histone deacetylase 3 = Histone deacetylase 3 (Homo sapiens, UniProt O15379); test: Inhibition of human recombinant HDAC3 expressed in baculovirus infected High5 insect cells using Ac-Lys-Tyr-Lys(e-acetyl)-AMC as substrate incubated for 24 hrs measured after 30 mins by microplate reader based spectrophotometric analysis; parameters: species or system BTI-TN-5B1-4
Sequence of Histone deacetylase 3 (O15379 whole entry): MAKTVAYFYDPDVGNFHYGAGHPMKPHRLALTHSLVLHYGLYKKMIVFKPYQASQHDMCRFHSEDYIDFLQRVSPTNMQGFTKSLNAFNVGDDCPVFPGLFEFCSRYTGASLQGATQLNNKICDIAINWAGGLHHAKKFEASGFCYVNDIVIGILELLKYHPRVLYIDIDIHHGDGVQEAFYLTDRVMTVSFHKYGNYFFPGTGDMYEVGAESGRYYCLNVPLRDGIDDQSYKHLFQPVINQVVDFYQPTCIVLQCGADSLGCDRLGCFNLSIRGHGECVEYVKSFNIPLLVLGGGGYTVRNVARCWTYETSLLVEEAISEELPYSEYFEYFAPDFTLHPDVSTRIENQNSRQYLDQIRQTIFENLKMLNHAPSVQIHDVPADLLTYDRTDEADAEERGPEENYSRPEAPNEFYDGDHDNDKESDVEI

[2] = Emission property of the compound assessed as fluorescence at 5 uM under acidic condition at pH 4 by fluorescence spectrophotometric method; assay type: physicochemical; settings: pH 4, 5 µM
[3] = Drug uptake in human Hela cells assessed as increased fluorescence intensity at 5 to 25 uM for 1 to 24 hrs by fluorescence imaging analysis; assay type: ADME, cell-based; settings: dose 1-25 µM, time 1-24 hrs
MDA-MB-231 = test: Antiproliferation activity against human MDA-MB-231 cells assessed as reduction in cell viability incubated for 72 hrs by MTT assay; assay type: functional, cell-based
[4] = Emission property of the compound assessed as maximum wavelength at 5 uM under pH condition 7.4 at excitation wavelength by fluorescence spectrophotometric method; assay type: physicochemical
Histone deacetylase 1 = Histone deacetylase 1 (Homo sapiens, UniProt Q13547); test: Inhibition of human recombinant HDAC1 expressed in baculovirus infected High5 insect cells using Ac-Lys-Tyr-Lys(e-acetyl)-AMC as substrate incubated for 24 hrs measured after 30 mins by microplate reader based spectrophotometric analysis; parameters: species or system BTI-TN-5B1-4
Sequence of Histone deacetylase 1 (Q13547 whole entry): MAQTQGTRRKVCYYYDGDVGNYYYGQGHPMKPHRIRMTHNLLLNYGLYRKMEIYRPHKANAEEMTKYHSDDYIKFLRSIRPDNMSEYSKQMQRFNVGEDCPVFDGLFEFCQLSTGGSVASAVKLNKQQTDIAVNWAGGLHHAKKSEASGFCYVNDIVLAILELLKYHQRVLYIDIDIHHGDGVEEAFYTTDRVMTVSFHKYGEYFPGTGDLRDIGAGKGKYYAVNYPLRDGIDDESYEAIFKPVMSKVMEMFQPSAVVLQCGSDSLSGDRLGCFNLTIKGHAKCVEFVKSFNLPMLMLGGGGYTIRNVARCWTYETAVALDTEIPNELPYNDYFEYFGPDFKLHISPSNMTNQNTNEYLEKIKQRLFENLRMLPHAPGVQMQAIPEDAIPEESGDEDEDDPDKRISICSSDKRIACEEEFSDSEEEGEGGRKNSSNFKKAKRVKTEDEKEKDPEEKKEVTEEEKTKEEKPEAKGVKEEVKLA

[5] = target: T1, Protein deacetylase HDAC6 (Homo sapiens, UniProt Q9UBN7); test: Inhibition of human recombinant HDAC6 expressed in baculovirus infected High5 insect cells using Boc-Lys(eacety1)-AMC as substrate incubated for 3 hrs measured after 30 mins by microplate reader based spectrophotometric analysis; parameters: species or system BTI-TN-5B1-4
T1 sequence (Q9UBN7 whole entry): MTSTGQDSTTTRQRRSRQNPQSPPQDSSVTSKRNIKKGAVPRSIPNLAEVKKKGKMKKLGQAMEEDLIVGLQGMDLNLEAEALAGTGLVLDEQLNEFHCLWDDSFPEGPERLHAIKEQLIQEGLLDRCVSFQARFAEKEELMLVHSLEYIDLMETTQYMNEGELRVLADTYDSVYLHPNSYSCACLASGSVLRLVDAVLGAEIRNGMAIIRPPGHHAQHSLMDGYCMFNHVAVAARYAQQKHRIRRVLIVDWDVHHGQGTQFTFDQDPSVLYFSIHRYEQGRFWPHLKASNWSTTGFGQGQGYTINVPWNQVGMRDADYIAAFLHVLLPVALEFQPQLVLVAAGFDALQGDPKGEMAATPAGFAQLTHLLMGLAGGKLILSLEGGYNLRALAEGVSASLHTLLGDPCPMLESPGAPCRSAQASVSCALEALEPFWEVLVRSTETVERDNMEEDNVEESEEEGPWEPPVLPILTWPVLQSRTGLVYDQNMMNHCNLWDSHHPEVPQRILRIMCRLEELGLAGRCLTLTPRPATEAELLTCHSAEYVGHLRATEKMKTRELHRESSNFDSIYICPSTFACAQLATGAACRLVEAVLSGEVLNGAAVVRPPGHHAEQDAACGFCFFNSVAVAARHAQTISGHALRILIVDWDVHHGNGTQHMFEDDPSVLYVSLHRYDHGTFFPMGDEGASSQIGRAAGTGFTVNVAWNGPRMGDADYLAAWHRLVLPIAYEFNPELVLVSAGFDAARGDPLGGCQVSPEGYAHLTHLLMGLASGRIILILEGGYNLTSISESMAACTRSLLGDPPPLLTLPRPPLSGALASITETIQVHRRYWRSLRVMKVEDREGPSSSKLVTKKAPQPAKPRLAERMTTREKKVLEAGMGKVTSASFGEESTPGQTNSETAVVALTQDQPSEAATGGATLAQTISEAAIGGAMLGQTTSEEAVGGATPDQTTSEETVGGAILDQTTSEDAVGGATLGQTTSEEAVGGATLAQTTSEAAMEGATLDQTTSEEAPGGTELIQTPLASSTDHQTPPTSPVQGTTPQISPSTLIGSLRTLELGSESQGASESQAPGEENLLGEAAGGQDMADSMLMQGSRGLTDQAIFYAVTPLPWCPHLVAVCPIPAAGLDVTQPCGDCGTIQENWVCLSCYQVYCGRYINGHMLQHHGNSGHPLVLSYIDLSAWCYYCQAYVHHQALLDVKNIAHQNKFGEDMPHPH

[6] = Absorption property of the compound assessed as maximum absorption wavelength at 5 uM under pH condition 7.4 by fluorescence spectrophotometric method; assay type: physicochemical
HeLa = test: Antiproliferation activity against human Hela cells assessed as reduction in cell viability incubated for 72 hrs by MTT assay; assay type: functional, cell-based
[7] = Drug uptake in human MDA-MB-231 cells assessed as decrease in fluorescence intensity at 25 uM for 1 to 24 hrs by fluorescence imaging analysis; assay type: ADME, cell-based; settings: mda-mb-231, 25 µM, time 1-24 hrs
[8] = Chemical stability of compound in PBS buffer assessed as drug degradation at 37 degree C; assay type: physicochemical

| SMILES | Drug uptake [1] | IC50 (Histone deacetylase 3) [µM] | Activity [2] | Drug uptake [3] | Activity (MDA-MB-231) | Activity [4] [nm] | IC50 (Histone deacetylase 1) [µM] | IC50 [5] [µM] | Activity [6] [nm] | Activity (HeLa) | Drug uptake [7] | Stabilty [8] | IC50 (MDA-MB-231; MDA-MB-231, 72 h) [µM] | IC50 (HeLa) [µM] |
| --- | --- | --- | --- | --- | --- | --- | --- | --- | --- | --- | --- | --- | --- | --- |
| CC[N+]1=C(/C=C/C2=C3Oc4cc(O)cc(OCCCCCCCC(=O)O)c4C=C3CCC2)C(C)(C)c2ccccc21.[I-] | Not Active | 11 | Not Active | Not Active | inactive | 723 | 9.69 | 13.8 | 707 | inactive | Active | – | – | – |
| CC[N+]1=C(/C=C/C2=C3Oc4cc(O)cc(OCCCCCCCC(=O)NO)c4C=C3CCC2)C(C)(C)c2ccccc21.[I-] | Active | 0.57 | Not Active | Active | – | 723 | 0.36 | 0.19 | 707 | – | Active | Stable | 9.2 | 5.91 |
